From patent US9834543B2, “Indazoles and use thereof” (Purdue Pharma L.P., priority 2013, dated 2017)
Where two headings read alike, the source gives them in different places.

Assays:
[1] = target: human Nav1.7 (Homo sapiens (Human), UniProt Q15858); assay: FLIPR or FLIPR TETRA sodium dye assay with KCl and test article pre-incubation (sodium mobilization); type: cell-based
[2] = target: hNav1.7 (Homo sapiens (Human), UniProt Q15858); assay: EP (electrophysiology) assay, whole-cell patch clamp in hNav1.7 expressing HEK-293 cells; type: cell-based; details: affinity for the inactivated state of the channel; hNav1.7 HEK-293; read-out: Nav1.7 Activity (μM) EP assay Ki
hNav1.7, sequence (Q15858 other isoform, or with tags, fused parts or gaps): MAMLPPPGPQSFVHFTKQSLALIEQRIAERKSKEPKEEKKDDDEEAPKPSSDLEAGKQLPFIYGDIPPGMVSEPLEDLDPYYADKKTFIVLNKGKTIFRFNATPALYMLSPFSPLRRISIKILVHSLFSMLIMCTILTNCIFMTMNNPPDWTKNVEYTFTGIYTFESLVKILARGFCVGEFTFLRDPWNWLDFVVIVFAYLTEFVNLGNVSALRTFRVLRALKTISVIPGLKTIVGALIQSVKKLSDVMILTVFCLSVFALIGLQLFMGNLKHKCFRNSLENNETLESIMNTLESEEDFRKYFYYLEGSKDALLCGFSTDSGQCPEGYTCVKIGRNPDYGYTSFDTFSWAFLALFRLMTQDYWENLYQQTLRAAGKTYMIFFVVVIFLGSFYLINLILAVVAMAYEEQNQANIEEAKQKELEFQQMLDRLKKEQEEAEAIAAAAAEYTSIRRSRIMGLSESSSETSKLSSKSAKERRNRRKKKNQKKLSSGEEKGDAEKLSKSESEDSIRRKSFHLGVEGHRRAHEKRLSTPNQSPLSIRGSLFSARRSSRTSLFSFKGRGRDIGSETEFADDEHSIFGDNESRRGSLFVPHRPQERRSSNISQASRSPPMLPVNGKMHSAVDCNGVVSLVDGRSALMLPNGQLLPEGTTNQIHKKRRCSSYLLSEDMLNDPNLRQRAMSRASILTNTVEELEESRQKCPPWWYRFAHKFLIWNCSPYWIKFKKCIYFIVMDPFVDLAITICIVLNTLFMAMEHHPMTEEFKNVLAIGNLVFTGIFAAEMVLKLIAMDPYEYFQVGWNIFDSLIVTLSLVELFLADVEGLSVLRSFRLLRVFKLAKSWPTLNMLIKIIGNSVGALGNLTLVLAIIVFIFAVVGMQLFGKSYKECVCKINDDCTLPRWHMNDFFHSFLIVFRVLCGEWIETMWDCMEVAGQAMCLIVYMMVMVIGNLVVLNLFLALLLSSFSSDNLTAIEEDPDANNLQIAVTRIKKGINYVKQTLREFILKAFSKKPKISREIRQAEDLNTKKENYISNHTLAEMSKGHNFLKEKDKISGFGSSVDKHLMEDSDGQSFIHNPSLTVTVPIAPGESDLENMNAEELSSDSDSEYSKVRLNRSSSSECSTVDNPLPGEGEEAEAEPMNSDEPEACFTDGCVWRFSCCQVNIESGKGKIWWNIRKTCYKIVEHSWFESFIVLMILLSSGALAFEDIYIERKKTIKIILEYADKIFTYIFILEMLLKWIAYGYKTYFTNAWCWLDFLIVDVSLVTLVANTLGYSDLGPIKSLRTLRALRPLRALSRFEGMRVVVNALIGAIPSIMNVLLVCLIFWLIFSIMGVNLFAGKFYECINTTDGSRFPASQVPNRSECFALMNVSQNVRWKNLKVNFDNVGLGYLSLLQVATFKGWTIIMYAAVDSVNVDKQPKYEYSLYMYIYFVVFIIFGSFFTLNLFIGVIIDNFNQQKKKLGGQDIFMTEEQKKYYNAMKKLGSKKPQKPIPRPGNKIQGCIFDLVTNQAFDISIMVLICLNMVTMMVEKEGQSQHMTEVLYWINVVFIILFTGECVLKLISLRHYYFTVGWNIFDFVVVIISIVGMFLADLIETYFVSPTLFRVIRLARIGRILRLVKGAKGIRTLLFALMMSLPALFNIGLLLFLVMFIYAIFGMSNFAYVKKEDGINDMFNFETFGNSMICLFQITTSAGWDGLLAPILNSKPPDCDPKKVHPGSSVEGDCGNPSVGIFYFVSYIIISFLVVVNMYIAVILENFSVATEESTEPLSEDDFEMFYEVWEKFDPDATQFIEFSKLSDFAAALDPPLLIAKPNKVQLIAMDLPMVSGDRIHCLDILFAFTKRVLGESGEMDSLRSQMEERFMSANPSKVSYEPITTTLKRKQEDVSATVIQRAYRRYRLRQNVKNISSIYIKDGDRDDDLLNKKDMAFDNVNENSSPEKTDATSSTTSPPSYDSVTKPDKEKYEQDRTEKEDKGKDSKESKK
Method: Cells Manual Electrophysiology: The hNav1.7 expressing HEK-293 cells are plated on 35 mm culture dishes pre-coated with poly-D-lysine in standard DMEM culture media (Mediatech, Inc., Herndon, Va.) and incubated in a 5% CO2 incubator at 37° C. Cultured cells are used approximately 12-48 h after plating.
The hNav1.7 expressing HEK-293 cells are plated on tissue culture flasks in standard DMEM culture media (Mediatech, Inc.) and incubated in a 5% CO2 incubator at 37° C. Cultured cells are used approximately 12-48 hours after plating.
On the day of experimentation, the 35 mm dish is placed on the stage of an inverted microscope equipped with a perfusion system that continuously perfuses the culture dish with fresh recording media. A gravity driven superfusion system is used to apply test solutions directly to the cell under evaluation. This “shooter” system consists of an array of glass pipette glass connected to a motorized horizontal translator. The outlet of the shooter is positioned approximately 100 μm from the cell of interest.
Gigaseals are formed and the whole-cell configuration is established in voltage clamp mode, and membrane currents generated by hNav1.7 channels are recorded. […] Signals are sampled at 50 kHz and low pass filtered at 3 kHz.
Gigaseals are formed and the whole-cell configuration is established in voltage clamp mode, and membrane currents generated by hNav1.7 are recorded. […]
After a stable baseline is established, the test compound is applied and block of the current elicited by the test pulse assessed. […] An estimate of the Ki is calculated as follows: Ki=[drug]*{FR/(1−FR)}, Eq. 1 where [drug] is the concentration of a drug, and FR=I(after drug)/I(control), Eq. 2
where I is the peak current amplitude. If multiple concentrations were used, Ki is determined from the fit of a logistic equation to FRs plotted against corresponding drug concentrations. […]
The compound testing protocol is a series of 10 ms depolarizations from the Vh1 (determined from the SSIN) to the Vt (determined from the I-V protocol) repeated every 10-15 seconds. […]

human Nav1.7, sequence (Q15858 with tags, fused parts or gaps limits assumed): as the sequence (Q15858 other isoform, or with tags, fused parts or gaps) above

Compound	IC50 [1]	Ki [2]	IC50 ([1]; recombinant human Nav1.7 in HEK293, veratridine and scorpion venom agonists)
Cn1ncc2c(Oc3ccc(-c4nc(N[C@H]5CCNC5=O)cc(C(N)=O)n4)cc3)ccc(Cl)c21 [Compound 20, (S)-2-(4-((7-chloro-1-methyl-1H-indazol-4-yl)oxy)phenyl)-6-((2-oxopyrrolidin-3-yl)amino)pyrimidine-4-carboxamide]	0.405 ± 0.06 µM		
Cn1ncc2c(Oc3ccc(-c4cccc(C(N)=O)n4)cc3)ccc(Cl)c21 [Compound 22, 6-(4-((7-chloro-1-methyl-1H-indazol-4-yl)oxy)phenyl)picolinamide]	0.53 ± 0.034 µM		
Cn1ncc2c(Oc3ccc(-c4nc(C(N)=O)cc([C@H](O)CO)n4)cc3)ccc(Cl)c21 [Compound 34, (S)-2-(4-((7-chloro-1-methyl-1H-indazol-4-yl)oxy)phenyl)-6-(1,2-dihydroxyethyl)pyrimidine-4-carboxamide]	0.157 ± 0.023 µM	0.12 ± 0.027 µM	
Cn1ncc2c(Oc3ccc(-c4cc([C@H](O)CO)cc(C(N)=O)n4)cc3)ccc(Cl)c21 [Compound 38, (S)-6-(4-((7-chloro-1-methyl-1H-indazol-4-yl)oxy)phenyl)-4-(1,2-dihydroxyethyl)picolinamide]	0.45 ± 0.026 µM		
Cn1ncc2c(Oc3ccc(-c4cc([C@H](O)CO)cc(C(N)=O)n4)cc3)ccc(F)c21 [Compound 39, (S)-4-(1,2-dihydroxyethyl)-6-(4-((7-fluoro-1-methyl-1H-indazol-4-yl)oxy)phenyl)picolinamide]	0.797 ± 0.051 µM	0.47 ± 0.046 µM	
Cn1ncc2c(Oc3ccc(-c4cc([C@@H](O)CO)cc(C(N)=O)n4)cc3)ccc(F)c21 [Compound 40, (R)-4-(1,2-dihydroxyethyl)-6-(4-((7-fluoro-1-methyl-1H-indazol-4-yl)oxy)phenyl)picolinamide]	0.596 ± 0.076 µM		
Cn1ncc2c(Oc3cc(F)c(S(=O)(=O)Nc4nncs4)cc3Cl)ccc(Cl)c21 [Compound 41, 5-chloro-4-((7-chloro-1-methyl-1H-indazol-4-yl)oxy)-2-fluoro-N-(1,3,4-thiadiazol-2-yl)benzenesulfonamide]			> 20 µM
Cn1ncc2c(Oc3ccc(S(=O)(=O)Nc4nncs4)cc3)ccc(Cl)c21 [Compound 42, 4-((7-chloro-1-methyl-1H-indazol-4-yl)oxy)-N-(1,3,4-thiadiazol-2-yl)benzenesulfonamide]	> 20 µM	9.01 ± 4.76 µM	
